Experimental data: patent publication US7279497B2, “Benzopyran derivatives substituted with secondary amines including imidazole, their preparation and pharmaceutical compositions containing them” (Korea Research Institute of Chemical Technology, priority 2002, dated 2007)

Tests used:
[1] = test system: HUVECs (Human umbilical vein endothelial cells); assay: Inhibitory effects on HUVEC tube formation; type: cell-based;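 also: from minus no inhibition up to plus-plus-plus complete inhibition versus vehicle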
In short: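 HUVECs within passage 5 were plated on bFGF-reduced polymerized Matrigel and incubated with or without compound. Tube formation assessed as changes in cell morphology by phase-contrast microscopy and photography.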

SPF SD rats = details: rat, in vivo, po
rat brain homogenate = assay: Inhibitory activity against iron-induced lipid peroxidation (MDA); type: biochemical; details: 30 μM, FeCl2 400 μm
Description: In order to examine whether the compounds of the formula 1 suppress the iron-induced lipid peroxidation, experiments were conducted as follows.
The rat brain was homogenized in a Krebs buffer (15 mM HEPES, 10 mM glucose, 140 mM NaCl, 3.6 mM KCl, 1.5 mM CaCl2, 1.4 mM KH2PO4, 0.7 mM MgCl2, pH 7.4) and the supernatant separated by centrifugation at 12,000 rpm for 10 min was used for further experiments. FeCl2 was added to a final concentration of 400 μm in the brain homogenate which was then allowed to stand at 37° C. for 30 min. for the facilitation of oxidation. Each of the test compounds was added at a concentration of 30 μM and vehicle was used as a control.
Iron facilitates the oxidation of the brain homogenate to produce malondialdehyde (MDA), a lipid peroxidation product. Thus, the lipid peroxidation was determined by MDA quantification. The inhibitory effect of the test compounds against the lipid peroxidation was evaluated by calculating MDA reduction rate of the test compounds compared with that of the control group.
Typically, the MDA quantification is achieved by reacting samples with 2-thiobarbituric acid (TBA) and measuring the absorbance at 530 nm. However, this method is unsuitable to treat samples on a large scale because of a boiling step. Thus, in this experiment, N-methyl-2-phenylindole was used instead of TBA. […] Bioxytech^R LPO-586 Kit was used for MDA quantification.

## COC(OC)[C@@]1(C)Oc2ccc(N)cc2[C@@H](N(Cc2ncc[nH]2)c2ccc(C(F)(F)F)cc2)[C@@H]1O [Example 25, (2S,3S,4R)-6-amino-3,4-dihydro-2-dimethoxymethyl-3-hydroxy-2-methyl-4-[N-(4-trifluoromethylphenyl)-N-(1H-imidazol-2-ylmethyl)amino]-2H-1-benzopyran]
[1]; 10 μM
  Tube formation: +/−
[1]; 100 μM
  Tube formation: +/−
SPF SD rats
  clinical symptoms, body weight and mortality: no significant changes
Rat brain homogenate
  % Inhibition of lipid peroxidation by iron: 97%
